Bridge positions count the residues as written; N and C are the ends. Square brackets hold non-standard residues; d marks the D form. Peptide text beside a SMILES is read from it. * marks the point of attachment. hPhe(3,5-F2-4-CF3) = N[C@@H](CCc1cc(F)c(C(F)(F)F)c(F)c1)C(=O)O; hPhe(3-Cl-4-CF3) = N[C@@H](CCc1ccc(C(F)(F)F)c(Cl)c1)C(=O)O; NMePhe(4-Cl) = CN[C@@H](Cc1ccc(Cl)cc1)C(=O)O; NMePhe(4-Me) = CN[C@@H](Cc1ccc(C)cc1)C(=O)O; NMePhe(4-F) = CN[C@@H](Cc1ccc(F)cc1)C(=O)O; NMeMet(O2) = CN[C@@H](CCS(C)(=O)=O)C(=O)O; NMeGly(cPent) = CN[C@H](C(=O)O)C1CCCC1; Phe(3-I) = N[C@@H](Cc1cccc(I)c1)C(=O)O; NMeY = CN[C@@H](Cc1ccc(O)cc1)C(=O)O; NMeCha = CN[C@@H](CC1CCCCC1)C(=O)O; NMeChg = CN[C@H](C(=O)O)C1CCCCC1; NMeI = CC[C@H](C)[C@H](NC)C(=O)O; hPhe = N[C@@H](CCc1ccccc1)C(=O)O; NMeD = CN[C@@H](CC(=O)O)C(=O)O; NMeL = CN[C@@H](CC(C)C)C(=O)O; NMeV = CN[C@H](C(=O)O)C(C)C; d(β3hA) = C[C@@H](N)CC(=O)O; NMeA = CN[C@@H](C)C(=O)O; NMeAib = CNC(C)(C)C(=O)O; Nle = CCCC[C@H](N)C(=O)O; Piperidide = C1CCN(*)CC1; Pra = C#CC[C@H](N)C(=O)O; Pyrrolidide = C1CCN(*)C1; dNMeA = CN[C@H](C)C(=O)O; Ac5c = NC1(C(=O)O)CCCC1; Aze = O=C(O)[C@@H]1CCN1; Ac4c = NC1(C(=O)O)CCC1; Sar = CNCC(=O)O
test system: Human pancreatic cancer cell line AsPC-1 (G12D mutation Kras); test: AsPC-1 cell growth inhibition (AsPC-1 CGI); type: cell-based; conditions: read-out: AsPC-1 cell growth inhibition, 50% growth inhibitory concentration (IC50 value); 96 hours, CellTiter-Glo, values classified in ranges
Description: Test compounds were serially dilated with dimethyl sulfoxide, and 200 nL was then dispensed to a U-bottom 96-well plate using Labcyte Echo. […] The cell suspension was dispensed to a. plate containing a test compound at 100 μL per well and incubated at 37° C. in a 5% carbon dioxide gas incubator. 96 hours later, 80 μL of CellTiter-Glo (Promega) was added to each well and fluorescence was measured.

| Structure (SMILES) | IC50 [nM] |
| --- | --- |
| CC[C@H](C)[C@@H]1NC(=O)[C@H](CC(C)C)N(C)C(=O)C[C@@H](C(=O)N2CCCC2)N(C)C(=O)[C@H](C2CCCCC2)N(C)C(=O)C2(CCC2)NC(=O)[C@@H]2CCCN2C(=O)[C@H](CCc2cc(F)c(C(F)(F)F)c(F)c2)NC(=O)CN(C)C(=O)[C@H](CC2CCCCC2)N(C)C(=O)CN(C)C(=O)CN(C)C1=O [Compound 1165] ([NMeL]I[Sar][Sar][NMeCha][Sar][hPhe(3,5-F2-4-CF3)]P[Ac4c][NMeChg][NMeD]-Pyrrolidide; lactam N-11) | ≤ 20 |
| CCCC[C@@H]1NC(=O)C(C)(C)N(C)C(=O)[C@H](CCCC)NC(=O)[C@H](Cc2cccc(I)c2)NC(=O)CN(C)C(=O)[C@H](Cc2ccc(Cl)cc2)N(C)C(=O)CN(C)C(=O)CN(C)C(=O)[C@H]([C@@H](C)CC)NC(=O)[C@H](CC(C)C)N(C)C(=O)C[C@@H](C(=O)N2CCCCC2)N(C)C1=O [Compound 765] ([NMeL]I[Sar][Sar][NMePhe(4-Cl)][Sar][Phe(3-I)][Nle][NMeAib][Nle][NMeD]-Piperidide; lactam N-11) | > 500 |
| CC[C@H](C)[C@@H]1NC(=O)[C@H](CC(C)C)N(C)C(=O)C[C@@H](C(=O)N2CCCCC2)N(C)C(=O)[C@H](CC(C)C)NC(=O)C(C)(C)N(C)C(=O)[C@H](CCc2ccccc2)NC(=O)[C@H](Cc2cccc(I)c2)NC(=O)CN(C)C(=O)[C@H](Cc2ccc(C)cc2)N(C)C(=O)[C@@H]2CCN2C(=O)CN(C)C1=O [Compound 442] ([NMeL]I[Sar][Aze][NMePhe(4-Me)][Sar][Phe(3-I)][hPhe][NMeAib]L[NMeD]-Piperidide; lactam N-11) | > 500 |
| C#CC[C@@H]1NC(=O)[C@H](Cc2cccc(I)c2)NC(=O)CN(C)C(=O)[C@H](Cc2ccc(OC)cc2)N(C)C(=O)[C@@H]2CCN2C(=O)CN(C)C(=O)[C@H]([C@@H](C)CC)NC(=O)[C@H](CC(C)C)N(C)C(=O)C[C@@H](C(=O)N2CCCCC2)N(C)C(=O)[C@H](CC(C)C)NC(=O)C(C)(C)N(C)C1=O [Compound 1246] ([NMeL]I[Sar][Aze][NMeY](Me)[Sar][Phe(3-I)][Pra][NMeAib]L[NMeD]-Piperidide; lactam N-11) | > 500 |
| CC[C@H](C)[C@@H]1NC(=O)[C@H](CC(C)C)N(C)C(=O)C[C@@H](C(=O)N2CCCCC2)N(C)C(=O)[C@H](C(C)C)N(C)C(=O)C2(CCCC2)NC(=O)[C@@H]2CCCN2C(=O)[C@H](CCc2ccc(C(F)(F)F)c(Cl)c2)NC(=O)CN(C)C(=O)[C@H](CCS(C)(=O)=O)N(C)C(=O)[C@@H]2CCN2C(=O)[C@H](C)N(C)C1=O [Compound 235] ([NMeL]I[NMeA][Aze][NMeMet(O2)][Sar][hPhe(3-Cl-4-CF3)]P[Ac5c][NMeV][NMeD]-Piperidide; lactam N-11) | > 500 |
| CC[C@H](C)[C@@H]1NC(=O)[C@H](CC(C)C)N(C)C(=O)C[C@@H](C(=O)N(C)C)N(C)C(=O)[C@H]([C@@H](C)CC)N(C)C(=O)C2(CCCC2)NC(=O)[C@H](C)N(C)C(=O)[C@H](CCc2ccc(C(F)(F)F)c(Cl)c2)NC(=O)CN(C)C(=O)[C@H](Cc2ccc(C)cc2)N(C)C(=O)[C@@H]2CCN2C(=O)[C@H](C)N(C)C1=O [Compound 378] ([NMeL]I[NMeA][Aze][NMePhe(4-Me)][Sar][hPhe(3-Cl-4-CF3)][NMeA][Ac5c][NMeI][NMeD]-NMe2; lactam N-11) | ≤ 20 |
| CC[C@H](C)[C@@H]1NC(=O)[C@H](CC(C)C)N(C)C(=O)C[C@@H](C)NC(=O)[C@H](C2CCCC2)N(C)C(=O)[C@H](C)NC(=O)[C@@H]2CCCN2C(=O)[C@H](CCc2ccc(C(F)(F)F)c(Cl)c2)NC(=O)CN(C)C(=O)[C@H](Cc2ccc(C)cc2)N(C)C(=O)[C@@H]2CCN2C(=O)[C@H](C)N(C)C1=O [Compound 1221] (cyclo(A[NMeGly(cPent)][d(β3hA)][NMeL]I[NMeA][Aze][NMePhe(4-Me)][Sar][hPhe(3-Cl-4-CF3)]P)) | > 500 |
| CC[C@H](C)[C@@H]1NC(=O)[C@H](C)N(C)C(=O)C[C@@H](C(=O)N2CCCCC2)N(C)C(=O)[C@H](C(C)C)N(C)C(=O)C2(CCCC2)NC(=O)[C@@H]2CCCN2C(=O)[C@H](CCc2ccc(C(F)(F)F)c(Cl)c2)NC(=O)[C@@H](C)N(C)C(=O)[C@H](Cc2ccc(F)cc2)N(C)C(=O)CN(C)C(=O)CN(C)C1=O [Compound 1755] ([NMeA]I[Sar][Sar][NMePhe(4-F)][dNMeA][hPhe(3-Cl-4-CF3)]P[Ac5c][NMeV][NMeD]-Piperidide; lactam N-11) | > 500 |
| CC[C@H](C)[C@@H]1NC(=O)[C@H](C)N(C)C(=O)C[C@@H](C)NC(=O)[C@H](C(C)C)N(C)C(=O)C2(CCCC2)NC(=O)[C@@H]2CCCN2C(=O)[C@H](CCc2ccc(C(F)(F)F)c(Cl)c2)NC(=O)CN(C)C(=O)[C@H](CC2CCCCC2)N(C)C(=O)CN(C)C(=O)CN(C)C1=O [Compound 697] (cyclo([Ac5c][NMeV][d(β3hA)][NMeA]I[Sar][Sar][NMeCha][Sar][hPhe(3-Cl-4-CF3)]P)) | > 500 |

Reference: US20240148821A1, “PHARMACEUTICAL USE OF CYCLIC PEPTIDE COMPOUND” (CHUGAI SEIYAKU KABUSHIKI KAISHA, priority 2021, published 2024)
